Test results: US20100287636A1, “COMPOSITIONS AND METHODS FOR INHIBITING INDUCIBLE T CELL KINASE (ITK) AND TREATING ASTHMA AND BRONCHIAL INFLAMMATIONS” (San Diego State University Foundation, dba San Diego State …, priority 2007, published 2010)
No end group written: not given here.

What was measured:
[1] = tested on: Jurkat cells; assay: viability measurements on Jurkat cells; format: cell-based; conditions: highest concentration tested
[2] = target: T1, ITK-SLP76 interaction (Homo sapiens, UniProt Q08881); assay: inhibition of inducible ITK-SLP76 association in stimulated Jurkat cells (co-immunoprecipitation); format: cell-based
T1 construct: endogenous in cells; host or cells: Jurkat T cells
T1 sequence (Q08881 1-620): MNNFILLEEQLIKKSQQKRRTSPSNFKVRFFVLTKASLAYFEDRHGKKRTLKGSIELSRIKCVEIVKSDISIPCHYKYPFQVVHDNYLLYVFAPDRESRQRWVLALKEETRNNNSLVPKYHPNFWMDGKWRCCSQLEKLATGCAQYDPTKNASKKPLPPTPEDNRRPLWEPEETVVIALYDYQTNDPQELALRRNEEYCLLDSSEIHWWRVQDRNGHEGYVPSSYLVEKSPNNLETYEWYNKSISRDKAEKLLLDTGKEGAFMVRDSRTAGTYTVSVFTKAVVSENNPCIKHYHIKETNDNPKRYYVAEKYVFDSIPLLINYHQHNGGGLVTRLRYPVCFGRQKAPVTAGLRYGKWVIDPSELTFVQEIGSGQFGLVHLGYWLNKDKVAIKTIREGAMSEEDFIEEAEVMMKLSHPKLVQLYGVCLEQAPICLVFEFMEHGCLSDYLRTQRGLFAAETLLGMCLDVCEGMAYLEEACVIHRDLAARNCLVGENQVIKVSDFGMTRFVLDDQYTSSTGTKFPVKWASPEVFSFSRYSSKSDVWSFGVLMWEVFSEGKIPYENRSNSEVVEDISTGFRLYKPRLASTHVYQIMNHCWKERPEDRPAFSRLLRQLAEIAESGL
Method: (§1) FIG. 1. Inducible Association between ITK and SLP76: Jurkat T cells were stimulated through their TCR for various periods of time and then lysed. Lysates were treated with antibody to SLP-76 (IP: anti-SLP76) and the immune complexes were resolved by gel electrophoresis. The resolved proteins were transferred onto a membrane where ITK and SLP76 were visualized by probing with specific antibodies reactive with these proteins. First, ITK was probed (IB: anti-ITK) and subsequently SLP76 (IB: anti-SLP76). […] The interpretation is that ITK and SLP76 participate in a stimulation inducible signaling complex. Furthermore, the association of ITK and SLP76 in this complex is time dependent. It happens at one (1) minute post stimulation and then the two proteins dissociate.
(§2) FIG. 4. Inhibition of ITK-SLP76 inducible association by the polyArg-SLP76 peptide conjugate of the invention: We next addressed the important question of whether the presence of the exemplary SLP76 peptide of the invention disrupts the physical association between ITK and SLP76. Jurkat cells were stimulated as described under FIG. 1 above in the presence or absence of various concentrations of the exemplary Arg-conjugated SLP76 peptide of the invention. […] This index was calculated by correcting the ITK signals for the total of SLP 76 signal in each lane and then calculating the ratio over the non-stimulated control. […]

[3] = target: T2, ITK (Homo sapiens, UniProt Q08881); assay: phosphorylation of ITK on Tyr 511 in Jurkat cells (flow cytometry); format: cell-based; conditions: text does not separate Jurkat and mouse splenocytes, read-out: peptide concentration for fifty percent inhibition of ITK phosphorylation
T2 construct: endogenous in cells; host or cells: Jurkat T cells
T2 sequence (Q08881 1-620): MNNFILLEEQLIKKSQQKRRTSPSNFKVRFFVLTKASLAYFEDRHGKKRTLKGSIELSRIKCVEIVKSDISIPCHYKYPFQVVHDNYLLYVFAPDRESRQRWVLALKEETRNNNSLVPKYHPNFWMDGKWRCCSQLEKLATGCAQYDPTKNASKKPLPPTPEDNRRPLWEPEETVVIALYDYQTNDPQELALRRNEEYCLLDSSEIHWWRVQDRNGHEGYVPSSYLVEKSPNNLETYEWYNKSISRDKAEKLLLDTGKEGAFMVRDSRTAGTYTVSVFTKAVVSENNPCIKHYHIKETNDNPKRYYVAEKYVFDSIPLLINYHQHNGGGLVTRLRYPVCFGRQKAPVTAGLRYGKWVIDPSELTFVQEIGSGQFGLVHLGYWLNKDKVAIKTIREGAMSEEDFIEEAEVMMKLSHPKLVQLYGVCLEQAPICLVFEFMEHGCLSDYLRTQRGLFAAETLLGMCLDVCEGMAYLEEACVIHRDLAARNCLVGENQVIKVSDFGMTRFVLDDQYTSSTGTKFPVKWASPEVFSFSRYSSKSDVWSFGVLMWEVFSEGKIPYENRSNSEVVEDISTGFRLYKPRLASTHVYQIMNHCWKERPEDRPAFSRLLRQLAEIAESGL
Method: (§3) FIG. 6. […] Following stimulation the cells were stained with specific anti-ITK phosphotyrosine antibodies obtained from a commercial source (BD Biosciences) and following the manufacturer's instructions for intracytoplasmic staining. The stained samples were analyzed in a flow cytometer and the percent phosphorylation related to control (100%) was quantified. […] Fifty percent inhibition was achieved by approximately 1 μM peptide

[4] = target: T3, ITK (Mus musculus, UniProt Q03526); assay: phosphorylation of ITK on Tyr 511 in mouse splenocytes (flow cytometry); format: cell-based; conditions: text does not separate Jurkat and mouse splenocytes, read-out: peptide concentration for fifty percent inhibition of ITK phosphorylation
T3 construct: endogenous in cells; host or cells: primary mouse splenic lymphocytes
T3 sequence (Q03526 1-625): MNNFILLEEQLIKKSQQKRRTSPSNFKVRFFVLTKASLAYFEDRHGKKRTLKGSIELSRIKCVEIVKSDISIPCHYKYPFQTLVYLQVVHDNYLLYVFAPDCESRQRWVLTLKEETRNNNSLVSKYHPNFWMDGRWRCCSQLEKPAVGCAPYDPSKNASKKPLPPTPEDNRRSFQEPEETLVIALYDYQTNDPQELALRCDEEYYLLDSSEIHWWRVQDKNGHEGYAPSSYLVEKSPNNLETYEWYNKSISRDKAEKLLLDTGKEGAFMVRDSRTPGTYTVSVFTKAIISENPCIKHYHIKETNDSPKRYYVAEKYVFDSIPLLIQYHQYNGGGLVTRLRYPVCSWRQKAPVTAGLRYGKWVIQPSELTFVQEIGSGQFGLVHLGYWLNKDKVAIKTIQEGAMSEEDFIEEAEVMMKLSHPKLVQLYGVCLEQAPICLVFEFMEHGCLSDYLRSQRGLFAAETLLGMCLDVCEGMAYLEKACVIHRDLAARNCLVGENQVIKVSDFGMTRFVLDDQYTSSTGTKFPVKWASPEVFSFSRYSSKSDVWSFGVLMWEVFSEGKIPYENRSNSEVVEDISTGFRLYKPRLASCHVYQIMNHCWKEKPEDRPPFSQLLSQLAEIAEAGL
Source text: In view of the significant degree of ITK-SLP 76 inhibition mediated by the exemplary arginine-SLP 76 peptide conjugate of the invention, henceforth called R9-QQP, the next question was whether the exemplary R9-QQP peptide can inhibit the phosphorylation of ITK. This is important because it represents an accurate index of ITK activity; see e.g., referenced (14), below. Furthermore, the data described above have been performed by using the Jurkat T cell line. Even though this is a very useful cellular model for research, it is a leukemic cell line and thus, data obtained with this model should be confirmed in a more normal physiological substrate. Therefore, we also tested the effect of R9-QQP on primary mouse splenic lymphocytes.
as §3

[5] = target: T4, SH3 domain of ITK (Mus musculus, UniProt Q03526); conditions: chemical shift perturbation assays, reference (17); read-out: Kd of the in vitro interaction between peptide and the SH3 domain of ITK; cited from earlier work
T4 sequence (Q03526 177-237 limits assumed): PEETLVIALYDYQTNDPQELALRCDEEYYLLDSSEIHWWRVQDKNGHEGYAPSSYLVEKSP

[6] = target: T5, R9 (nine Arginine amino acids by themselves)
T5 chain: RRRRRRRRR

[7] = target: R9-Scrambled arginine-SLP 76 peptide conjugate (R9-SCR)
[8] = target: T6, Inducible T cell Kinase (ITK), endogenous in Jurkat T cells (human, UniProt Q08881 1-620); assay: co-IP from TCR-stimulated Jurkat T cell lysates (IP anti-SLP76, IB anti-ITK)
T6 construct: Endogenous intracellular ITK from Jurkat T cell lysates; The tie rests on Jurkat being a human T cell line
T6 sequence: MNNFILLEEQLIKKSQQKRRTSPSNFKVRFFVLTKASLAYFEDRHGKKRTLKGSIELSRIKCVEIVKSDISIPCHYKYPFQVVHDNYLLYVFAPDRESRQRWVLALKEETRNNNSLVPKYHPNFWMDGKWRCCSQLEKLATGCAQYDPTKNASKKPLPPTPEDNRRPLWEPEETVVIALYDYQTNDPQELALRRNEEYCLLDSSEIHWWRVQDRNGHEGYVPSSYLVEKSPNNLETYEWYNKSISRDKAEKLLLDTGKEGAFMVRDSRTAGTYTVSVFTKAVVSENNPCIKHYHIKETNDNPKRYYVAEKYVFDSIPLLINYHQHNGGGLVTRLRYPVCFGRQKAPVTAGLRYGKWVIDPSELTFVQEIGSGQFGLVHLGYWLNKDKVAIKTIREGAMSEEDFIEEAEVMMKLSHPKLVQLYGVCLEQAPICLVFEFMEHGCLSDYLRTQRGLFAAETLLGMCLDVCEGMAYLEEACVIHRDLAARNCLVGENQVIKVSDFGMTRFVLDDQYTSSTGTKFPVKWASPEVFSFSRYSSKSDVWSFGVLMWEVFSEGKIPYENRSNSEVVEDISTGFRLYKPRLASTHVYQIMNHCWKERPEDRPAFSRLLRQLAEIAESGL
Method: as §1

[9] = target: T6, Inducible T cell Kinase (ITK), …; assay: competition in cells: co-IP of ITK with SLP76 from stimulated Jurkat cells against peptide concentration (association index, average of three experiments)
Method: as §1, §2

RRRRRRRRRQQPPVPPQRPMA [R9-QQP]
toxic effects on Jurkat cells (viability) [1]: no toxic effects | inhibition at 1 µM ([2]; 1 μM of peptide, Jurkat cells stimulated 1 minute): ~50% | IC50 ([2]; Jurkat cells, read-out: concentration for 50% inhibition in the ITK-SLP 76 association): ~1 µM | IC50 [3]: ~1 µM | IC50 [4]: ~1 µM | Kd [5]: 0.77 µM

B1: ITK, endogenous in mouse splenic lymphocytes (protein)
chain: MNNFILLEEQLIKKSQQKRRTSPSNFKVRFFVLTKASLAYFEDRHGKKRTLKGSIELSRIKCVEIVKSDISIPCHYKYPFQTLVYLQVVHDNYLLYVFAPDCESRQRWVLTLKEETRNNNSLVSKYHPNFWMDGRWRCCSQLEKPAVGCAPYDPSKNASKKPLPPTPEDNRRSFQEPEETLVIALYDYQTNDPQELALRCDEEYYLLDSSEIHWWRVQDKNGHEGYAPSSYLVEKSPNNLETYEWYNKSISRDKAEKLLLDTGKEGAFMVRDSRTPGTYTVSVFTKAIISENPCIKHYHIKETNDSPKRYYVAEKYVFDSIPLLIQYHQYNGGGLVTRLRYPVCSWRQKAPVTAGLRYGKWVIQPSELTFVQEIGSGQFGLVHLGYWLNKDKVAIKTIQEGAMSEEDFIEEAEVMMKLSHPKLVQLYGVCLEQAPICLVFEFMEHGCLSDYLRSQRGLFAAETLLGMCLDVCEGMAYLEKACVIHRDLAARNCLVGENQVIKVSDFGMTRFVLDDQYTSSTGTKFPVKWASPEVFSFSRYSSKSDVWSFGVLMWEVFSEGKIPYENRSNSEVVEDISTGFRLYKPRLASCHVYQIMNHCWKEKPEDRPPFSQLLSQLAEIAEAGL
ITK Tyr 511 phosphorylation, flow cytometry, primary mouse splenic lymphocytes [6]: None of the two control peptides had significant effects on the phosphorylation of ITK in either Jurkat or primary mouse splenic lymphocytes | ITK Tyr 511 phosphorylation, flow cytometry, primary mouse splenic lymphocytes [7]: None of the two control peptides had significant effects on the phosphorylation of ITK in either Jurkat or primary mouse splenic lymphocytes

B2: SLP76, endogenous in Jurkat T cells (other, UniProt Q13094 1-533, looked up)
chain: MALRNVPFRSEVLGWDPDSLADYFKKLNYKDCEKAVKKYHIDGARFLNLTENDIQKFPKLRVPILSKLSQEINKNEERRSIFTRKPQVPRFPEETESHEEDNGGWSSFEEDDYESPNDDQDGEDDGDYESPNEEEEAPVEDDADYEPPPSNDEEALQNSILPAKPFPNSNSMYIDRPPSGKTPQQPPVPPQRPMAALPPPPAGRNHSPLPPPQTNHEEPSRSRNHKTAKLPAPSIDRSTKPPLDRSLAPFDREPFTLGKKPPFSDKPSIPAGRSLGEHLPKIQKPPLPPTTERHERSSPLPGKKPPVPKHGWGPDRRENDEDDVHQRPLPQPALLPMSSNTFPSRSTKPSPMNPLPSSHMPGAFSESNSSFPQSASLPPYFSQGPSNRPPIRAEGRNFPLPLPNKPRPPSPAEEENSLNEEWYVSYITRPEAEAALRKINQDGTFLVRDSSKKTTTNPYVLMVLYKDKVYNIQIRYQKESQVYLLGTGLRGKEDFLSVSDIIDYFRKMPLLLIDGKNRGSRYQCTLTHAAGYP
notes: whole, on cells; Endogenous intracellular adaptor protein, immunoprecipitated from Jurkat lysates with anti-SLP76 antibody
binding result [8]: binds

B3: R9-QQP, arginine-SLP76 peptide conjugate RRRRRRRRRQQPPVPPQRPMA (peptide)
peptide: RRRRRRRRRQQPPVPPQRPMA
notes: Synthetic cell-penetrating peptide; It was loaded into Jurkat cells or mouse splenocytes, or injected intraperitoneally into mice; A fluorescein-labelled version was used only for uptake studies, which are not recorded; also called Arg-SLP76 conjugate peptide; polyArg-SLP76 peptide conjugate
IC50 [9]: ~1 µM
